Key:
[1] = test system: PARP; conditions: rabbits, cited from earlier work
[2] = for Hygroscopicity (at 25° C.): in words

| SMILES | reduction in infarct size ([1]; single injection 1 mg/kg) | reduction in infarct size in the heart ([1]; single injection 10 mg/kg, one minute before occlusion or before reperfusion) | moisture to 50% RH ([2]; 25° C., to 50% RH) [%] | moisture adsorbed to 95% RH ([2]; 25° C.) | Hygroscopicity (at 25° C.) [2] |
| --- | --- | --- | --- | --- | --- |
| Oc1cccc2c(O)nccc12 [1,5-dihydroxyisoquinoline] | 38-48% |  |  |  |  |
| NC(=O)c1cccc(N)c1 [3-amino-benzamide] |  | 32-42% |  |  |  |
| Cl.NC(=O)c1cccc2cn(-c3ccc([C@@H]4CCCNC4)cc3)nc12 [Chloride salt, (3S)-3-[4-[7-(Aminocarbonyl)-2H-indazol-2-yl]phenyl]piperidinium chloride] |  |  | 10 | 60% moisture to 95% RH) | Highly hygroscopic |
| Cc1ccc(S(=O)(=O)O)cc1.NC(=O)c1cccc2cn(-c3ccc([C@@H]4CCCNC4)cc3)nc12 [Example 1, (3S)-3-{4-[7-(Aminocarbonyl)-2H-indazol-2-yl]phenyl}piperidinium 4-methylbenzenesulfonate] |  |  |  | 0.3% | Non-hygroscopic |

Reference: patent publication US8436185B2, “Pharmaceutically acceptable salts of 2-{4-[(3S)-piperidin-3-yl]phenyl}-2H-indazole-7-carboxamide” (Merck Sharp & Dohme Corp., priority 2008, dated 2013)
